Data from patent US9233954B2, “Organic amine salts of Azilsartan, preparation method and use thereof” (Jiangsu Hansoh Pharmaceutical Co., Ltd., priority 2011, dated 2016).
Read-outs that look alike come from different tables or passages of the source.

Legend:
[1] = test system: blood pressure of SHR rats; experiment: Antihypertensive effect test for spontaneously hypertensive (SHR) rats; type: in vivo; settings: 10 mg/kg
Method: Antihypertensive Effect Test For Spontaneously Hypertensive (SHR) Rats
38 of 25 week old SHR male rats were randomly divided into 4 groups according to the initial blood pressure, with 6 for the control group (solvent) and 8 for other groups. 10 mg/kg of example 2 compound (Choline Azilsartan), example 4 compound (Azilsartan ethanolamine salts) and control (Azilsartan medoxomil potassium salt) were continuously administered, respectively. The solvent control group was administered solvent. The administration volume was 5 ml/kg and the period was 2 weeks.

[2] = test system: hypertension rats induced by Angiotensin II; experiment: Effect on the hypertension rats induced by angiotensin II (DSI telemetry); type: in vivo, Sprague-Dawley rats; settings: for The average MBP over 23 hours before administration: baseline before single intragastric dose; for The average MBP over 23 hours before administration / Average blood pressure 1 hr after administration / Average blood pressure 2 hr after administration / Average blood pressure 3 hr before administration / Average blood pressure 7 hr after administration / Average blood pressure 13 hr after administration / Average blood pressure 13 hr before administration / Average blood pressure 18 hr after administration / Average blood pressure 23 hr after administration / Average blood pressure 23 hr before administration / The average MBP over 23 hours after administration: Mean±S.E., N=8; for Average ratio of reduction of the average blood pressure: average value after administration over 23 hours
Method: The Effect on the Hypertension Rats Induced by Angiotensin II
The dosage of angiotensin II was determined according to literature (Harrison-Bernard L M, Zhuo J, Kobori H, Ohishi M, Navar L G. Intrarenal A T (1) receptor and ACE binding in ANG II-induced hypertensive rats. Am. J. Physiol. Renal Physiol. 2002 January; 282(1):F19-25; Diz D I, Baer P G, Nasjletti A. Angiotensin II-induced hypertension in the rat. Effects on the plasma concentration, renal excretion, and tissue release of prostaglandins. J. Clin. Invest. 1983 August; 72(2):466-77.). Angiotensin II was precisely weighed and diluted with sterile saline up to a concentration of 14.4 mg/mL, then mixed slightly until clear and stored at −20° C. in the dark.
HS-10149 suspension: the compounds were precisely weighed and diluted with 2% of Ceolus suspension in a gradient of 0.20 mg/ml, 0.06 mg/ml, 0.02 mg/ml, then the suspension was stirred until dissolution and stored at 4° C. in the dark. The sample was warmed to room temperature in advance before administration and mixed to uniform.
The animals with required weight (female: 230-250 g, male: 200-220 g) were selected after adaptation for one week. The male rats were subjected to combined anesthesia of ketamine (44 mg/kg, im.) and 2% pentobarbital sodium solution (30 mg/kg, ip), and the female rates were narcotized with 2% pentobarbital sodium solution (40 mg/kg, ip). The implants were implanted on day 0 and the blood pressure was continuously monitored for 24 hours from the 7th day after implantation of a micro osmotic pump. The animals with mean systolic blood pressure (MSBP) up to 140 mmHg over 24 hours were considered as standard screening animals. The qualified animals were used in the test and the unqualified animals were excluded.
The qualified animals were divided into groups according to their MSBP over 24 hours, 8 animals for each group with half female and half male. 8 animals for each group met the requirement of statistical tests and the requirement of pharmacodynamics guiding principles.
After grouping, the solvent control, low, middle and high dosage animal groups were intragastrically administered with 2% Ceolus, 0.1 mg/kg, 0.3 mg/kg and 1.0 mg/kg of HS-10149, respectively. The administration time was 10:00 and 10:30 a.m. and the administration volume was 5 mL/kg.
(4) Experimental Process Healthy animals were implanted with implants at day 0 and a micro osmotic pump was implanted subcutaneously at day 8. The blood pressure was monitored for 24 hours from the 15th day and the animals with qualified blood pressure were selected to test. Positive drug or test sample was administered once at 10:00 a.m. on the 16th day and the blood pressure was monitored after administration for 24 hours. At the end of the test, the animals were sacrificed by excessive carbon dioxide. 5. Handling and Analysis of Data
The data were recorded every 5 s automatically by the DSI remote sensing pressure measuring device. The mean value calculated within an hour as unit by the software was considered as initial data.

[3] = test system: Beagle dog; type: in vivo; settings: for Clinical observations: intragastric
Source text: Acute Toxicity Test Research for Beagle Dog
Object: Approximate lethal dose method was introduced in the test to observe the acute toxicity response of the animals by intragastric administration of example 2 or Azilsartan medoxomil potassium salt to Beagle dogs to study the toxicity situation of example 2 after administration and compare the toxicity of example 2 and Azilsartan medoxomil potassium salt, which can provide reference confirmation for the evaluation of toxicity of example 2.
Method (approximate lethal dose method): 6 Beagle dogs were used, 3 for each of example 2 group and Azilsartan medoxomil potassium salt group. The administration dosage was 0.09, 0.13, 0.19, 0.28, 0.42, 0.63, 0.95, 1.42, 2.13, 3.20 g·kg^−1 respectively, wherein 3.20 g·kg^−1 was the maximum administration dosage (corresponding to 1081 times the given dosage for the clinical patient). The blood was collected before administration and on days 2, 7, and 14 after administration to test the corresponding biochemical indicators. Electrocardiogram, body weight, and body temperature were determined before administration and on days 7 and 14 after administration.

[4] = rat, in vivo, po
[5] = Beagle dog, intragastric administration
[6] = all of the animals in the group, 1.42-3.20 g·kg^−1

CCOc1nc2cccc(C(=O)O)c2n1Cc1ccc(-c2ccccc2-c2noc(=O)[nH]2)cc1.CCOc1nc2cccc(C(=O)[O-])c2n1Cc1ccc(-c2ccccc2-c2noc(=O)[nH]2)cc1.C[N+](C)(C)CCO [Example 2]
Antihypertensive effect compared with control (Azilsartan medoxomil potassium salt) ([1]; SHR rats, 2 weeks): superior to the antihypertensive effect of control | Antihypertensive effect, ranking under the same dosage ([1]; SHR rats, 2 weeks): optimal | Effect on blood pressure of SHR rats compared with solvent control ([1]; continuously administered for one or two weeks, FIG. 4): reduce the blood pressure of SHR rats significantly | The average MBP over 23 hours before administration ([2]; 0.1 mg/kg group): 146 ± 5 mmHg | Average blood pressure 1 hr after administration ([2]; 0.1 mg/kg group): 128 ± 8 | Average blood pressure 2 hr after administration ([2]; 0.1 mg/kg group): 102 ± 9 | Average blood pressure 3 hr before administration ([2]; 0.1 mg/kg group): 128 ± 9 | Average blood pressure 7 hr after administration ([2]; 0.1 mg/kg group): 91 ± 5 | Average blood pressure 13 hr after administration ([2]; 0.1 mg/kg group): 110 ± 3 | Average blood pressure 13 hr before administration ([2]; 0.1 mg/kg group): 144 ± 7 | Average blood pressure 18 hr after administration ([2]; 0.1 mg/kg group): 114 ± 3 | Average blood pressure 23 hr after administration ([2]; 0.1 mg/kg group): 109 ± 5 | Average blood pressure 23 hr before administration ([2]; 0.1 mg/kg group): 142 ± 8 | The average MBP over 23 hours after administration ([2]; 0.1 mg/kg single intragastric dose): 110 ± 3 mmHg | Antihypertension effect in the hypertension rat models induced by angiotensin II ([2]; 0.1 mg/kg to 1.0 mg/kg): significant antihypertension effect | Average ratio of reduction of the average blood pressure ([2]; 0.1 mg/kg): 24.7% | The average MBP over 23 hours before administration ([2]; 0.3 mg/kg group): 145 ± 5 mmHg | Average blood pressure 1 hr after administration ([2]; 0.3 mg/kg group): 119 ± 11 | Average blood pressure 2 hr after administration ([2]; 0.3 mg/kg group): 83 ± 6 | Average blood pressure 3 hr before administration ([2]; 0.3 mg/kg group): 124 ± 10 | Average blood pressure 7 hr after administration ([2]; 0.3 mg/kg group): 77 ± 4 | Average blood pressure 13 hr after administration ([2]; 0.3 mg/kg group): 91 ± 8 | Average blood pressure 13 hr before administration ([2]; 0.3 mg/kg group): 150 ± 6 | Average blood pressure 18 hr after administration ([2]; 0.3 mg/kg group): 108 ± 10 | Average blood pressure 23 hr after administration ([2]; 0.3 mg/kg group): 93 ± 3 | Average blood pressure 23 hr before administration ([2]; 0.3 mg/kg group): 147 ± 8 | The average MBP over 23 hours after administration ([2]; 0.3 mg/kg single intragastric dose): 88 ± 7 mmHg | Average ratio of reduction of the average blood pressure ([2]; 0.3 mg/kg): 39.3% | The average MBP over 23 hours before administration ([2]; 1.0 mg/kg group): 147 ± 5 mmHg | Average blood pressure 1 hr after administration ([2]; 1.0 mg/kg group): 118 ± 6 | Average blood pressure 2 hr after administration ([2]; 1.0 mg/kg group): 85 ± 5 | Average blood pressure 3 hr before administration ([2]; 1.0 mg/kg group): 129 ± 9 | Average blood pressure 7 hr after administration ([2]; 1.0 mg/kg group): 74 ± 4 | Average blood pressure 13 hr after administration ([2]; 1.0 mg/kg group): 76 ± 6 | Average blood pressure 13 hr before administration ([2]; 1.0 mg/kg group): 149 ± 7 | Average blood pressure 18 hr after administration ([2]; 1.0 mg/kg group): 80 ± 5 | Average blood pressure 23 hr after administration ([2]; 1.0 mg/kg group): 81 ± 5 | Average blood pressure 23 hr before administration ([2]; 1.0 mg/kg group): 146 ± 9 | The average MBP over 23 hours after administration ([2]; 1.0 mg/kg single intragastric dose): 81 ± 5 mmHg | Average ratio of reduction of the average blood pressure ([2]; 1.0 mg/kg): 44.9% | Minimum effective dose ([2]; single intragastric administration): 0.1 mg/kg | Duration of the effect after single administration ([2]; single intragastric administration, 0.1-1.0 mg/kg): about 23 hours | Dissection findings ([3]; 1.42 g·kg^−1 dosage group): the stomach was filled and contained amounts of particle food; the cardiac mucosa was red and showed sporadic red dot; other viscera did not show anomalies | Clinical observations ([3]; 1.42 g·kg^−1 dosage group, Beagle dog): liquid stools and less moving, moving reduction on day 2 after administration, the moving recovered to normal on day 3 and no abnormality was observed after day 3 | Clinical observations ([3]; 2.13 g·kg^−1 dosage group, Beagle dog): on the day of administration no abnormality was observed and the animals showed vomit, moving reduction on day 2 after administration, loose stools and moving recovered on day 3, and the excreta recovered to normal on day 4 and no abnormality observed after day 4 | Dissection findings ([3]; 2.13 g·kg^−1 dosage group, day 15): the stomach was filled and contained amounts of particle food; the cardiac mucosa was red and showed sporadic red dot; other viscera did not show anomalies | Blood biochemical indicators ([3]; 3.20 g·kg^−1 dosage): ALT of dogs with 3.20 g·kg^−1 dosage was increased on day 2 and recovered to normal on day 7 | Fib ([3]; 3.20 g·kg^−1 dosage): increased significantly on day 2 after administration | Histopathology (HE, light microscope) ([3]; 3.20 g·kg^−1 dosage group): did not show obvious anomalies | Clinical observations ([3]; 3.20 g·kg^−1 dosage group, Beagle dog): loose stools, liquid stools, vomit until the end of the observation and showed liquid stools, moving reduction on day 2 after administration, showed loose stools on day 3 and the moving recovered, the excreta recovered to normal on day 4 and no abnormality observed after that | Systolic blood pressure and diastolic blood pressure ([3]; 5 animals of the two groups together): reduced more or less on day 2 after administration | Acute toxicity, comparison [3, 5]: lower than that of Azilsartan medoxomil potassium salt | Approximate lethal dose [3, 5]: more than 3.20 g·kg^−1 | Body temperature [3, 6]: no abnormality on day 7 after administration | Body weight [3, 6]: decreased on day 7 after administration compared with pre-administration | Electrocardiogram and haematological indicators [3, 6]: not abnormal on day 7 after administration | PT values ([3]; all the animals of the group, after vs. pre-administration): reduced significantly after administration compared to pre-administration | Blood biochemical indicators ([3]; all the dogs of the group (1.42, 2.13, 3.20 g·kg^−1)): CRE, UREA and UA of all the dogs administered Example 2 compound were increased significantly on day 2 after administration, the CRE and UA increased significantly on day 7 after administration, and they recovered to normal on day 14 | Increase of AUC of Azilsartan acid in the plasma [4]: 70% | Increase of Cmax of Azilsartan acid in the plasma [4]: 98%
